Laboratory results published in US20240400572A1, “COMPOUNDS AND METHODS FOR TREATING CANCERS THAT ARE MGMT DEFICIENT REGARDLESS OF MMR STATUS” (Yale University, priority 2021, published 2024).
Where “and” joins values, the source holds several entries; their conditions need not be identical. Equal values may be shown once. Read-outs that look alike come from different tables or passages of the source.

Key:
[1] = system: LN229 MGMT+/−, MMR+/− cells; assay: Micronuclei analysis; type: cell-based, human; conditions: 20 μM, 48 h
Description: Micronuclei Analysis. An automated image analysis pipeline was developed by YCMD using InCell Analyzer software to quantify micronuclei formation. Nuclei and micronuclei were segmented based on Hoechst nucleic acid dye staining channel. A perinuclear margin was applied around the nuclei to approximate the extent of the cytoplasm and identify micronuclei associated with the parent nucleus. Cells with nuclei associated with at least 1 micronucleus were considered positive.

Brain distribution study = type: in vivo, male C57BL/6 mice; conditions: PO 20 mg/kg, male C57BL/6 mice
Method: Compound KL50 dosing solution: 3.39% DMSO+96.61% (10% HP-β-CD in saline) at 2 mg/mL; • 1) Weigh 17.39 mg of compound KL50 into a clean tube. • 2) Add 0.295 mL DMSO into the tube containing the compound. • 3) Vortex the tube for 3 min and sonicate it for 4 min. • 4) Add 8.400 mL 10% HP-β-CD in saline into the tube and vortex the tube for 3 min. Compound I-1 dosing solution: 3.39% DMSO+96.61% (10% HP-β-CD in saline) at 2 mg/mL; • 1) Weigh 16.86 mg Compound I-1 into a clean tube. • 2) Add 0.286 mL DMSO into the tube containing the compound. • 3) Vortex the tube for 3 min and sonicate it for 4 min. • 4) Add 8.144 mL 10% HP-β-CD in saline into the tube and vortex the tube for 3 min.
The in-vivo pharmacokinetic and brain distribution study was conducted under the following parameters. Twenty seven C57BL/6 male mice were purchased from Shanghai JiHui Laboratory Animal Co. LTD. Each mouse weighted from 16 g to 17 g. The mice were fasted overnight and fed post 4 hr sampling. Compound KL50 and Compound I-I were administered via oral gavage (PO) at a dose of 20 mg/kg (10 mL/kg). After dosing, sampling was completed at 0.083, 0.167, 0.333, 0.5, 0.75, 1, 2, 4 and 8 hr post dose, with three mice sacrificed at each time point.
Terminal bleeding for plasma and brain was completed at each time point. Approximately 110 μL blood per time point was collected into a K2EDTA tube via the facial vein. The blood sample was put on wet ice and centrifuged to obtain plasma sample (2000 g, 5 min under 4° C.) within 15 minutes. Plasma samples were acidified with 6 μL of formic acid for every 54 μL of plasma. After blood collection, a mid-line incision was made in the animal's scalp and the skin was retracted. The skull overlying the brain was removed. Then, the whole brain was collected, rinsed with cold saline, dried on filtrate paper, and weighed; and then snap frozen by placing the brain into dry-ice. Plasma samples were stored at approximately −70° C. until analysis. Brain tissue was homogenized with 3 volumes (v/w) of PBS (1% FA) and then analyzed with LC-MS/MS. The concentration of study drug was corrected with a dilution factor of four as following: Brain concentration=brain homogenate conc.×4, assuming 1 g wet brain tissue equals to 1 mL

NC(=O)c1ncn2c(=O)n(CCF)nnc12 [KL-50, 3-(2-fluoroethyl)-4-oxo-3H,4H-imidazo[4,3-d][1,2,3,5]tetrazine-8-carboxamide]
micronuclei formation (in words) [1]: significant increase in micronuclei was observed at 48 h | Brain Concentration/Plasma Concentration, Individuals (Brain distribution study; 0.083 hr, 20 mg/kg): 0.0770 and 0.0693 | brain Concentration, Individuals (Brain distribution study; 0.083 hr, 20 mg/kg): 1970 ng/g and 1940 ng/g | Brain Concentration/Plasma Concentration, Individuals (Brain distribution study; 0.167 hr, 20 mg/kg): 0.123 and 0.156 | brain Concentration, Individuals (Brain distribution study; 0.167 hr, 20 mg/kg): 2810 ng/g and 2820 ng/g | Brain Concentration/Plasma Concentration, Individuals (Brain distribution study; 0.333 hr, 20 mg/kg): 0.206 and 0.213 | brain Concentration, Individuals (Brain distribution study; 0.333 hr, 20 mg/kg): 2980 ng/g and 4450 ng/g | Brain Concentration/Plasma Concentration, Individuals (Brain distribution study; 0.5 hr, 20 mg/kg): 0.260 and 0.250 | brain Concentration, Individuals (Brain distribution study; 0.5 hr, 20 mg/kg): 3230 ng/g and 3830 ng/g | Brain Concentration/Plasma Concentration, Individuals (Brain distribution study; 0.75 hr, 20 mg/kg): 0.278 and 0.331 | brain Concentration, Individuals (Brain distribution study; 0.75 hr, 20 mg/kg): 3060 ng/g and 3380 ng/g | Brain Concentration/Plasma Concentration, Individuals (Brain distribution study; 1 hr, 20 mg/kg): 0.345 and 0.266 | brain Concentration, Individuals (Brain distribution study; 1 hr, 20 mg/kg): 2530 ng/g and 3270 ng/g | Brain Concentration/Plasma Concentration, Individuals (Brain distribution study; 2 hr, 20 mg/kg): 0.347 and 0.335 | brain Concentration, Individuals (Brain distribution study; 2 hr, 20 mg/kg): 953 ng/g and 1530 ng/g | Brain Concentration/Plasma Concentration, Individuals (Brain distribution study; 4 hr, 20 mg/kg): 0.269 and 0.250 | brain Concentration, Individuals (Brain distribution study; 4 hr, 20 mg/kg): 184 ng/g and 427 ng/g and 199 ng/g | Brain Concentration/Plasma Concentration, Individuals (Brain distribution study; 8 hr, 20 mg/kg): 0.175 and 0.244 | brain Concentration, Individuals (Brain distribution study; 8 hr, 20 mg/kg): 85.3 ng/g and 18.2 ng/g and 45.2 ng/g | AUCINF (Brain distribution study; brain): 7213 ng·h/g | AUClast (Brain distribution study; brain): 7128 ng·h/g | concentration at 0.083 hr (Brain distribution study; male, C57BL/6, mouse, brain, po, 20 mg/kg, 0.083 hr, N=3, read-out: brain Concentration, Mean): 1820 ng/g | concentration at 0.083 hr (Brain distribution study; male, C57BL/6, mouse, brain, po, 20 mg/kg, 0.083 hr, read-out: brain Concentration, Individuals): 1540 ng/g | concentration at 0.167 hr (Brain distribution study; male, C57BL/6, mouse, brain, po, 20 mg/kg, 0.167 hr, N=3, read-out: brain Concentration, Mean): 2940 ng/g | concentration at 0.167 hr (Brain distribution study; male, C57BL/6, mouse, brain, po, 20 mg/kg, 0.167 hr, read-out: brain Concentration, Individuals): 3180 ng/g | concentration at 0.333 hr (Brain distribution study; male, C57BL/6, mouse, brain, po, 20 mg/kg, 0.333 hr, N=3, read-out: brain Concentration, Mean): 3690 ng/g | concentration at 0.333 hr (Brain distribution study; male, C57BL/6, mouse, brain, po, 20 mg/kg, 0.333 hr, read-out: brain Concentration, Individuals): 3630 ng/g | concentration at 0.5 hr (Brain distribution study; male, C57BL/6, mouse, brain, po, 20 mg/kg, 0.5 hr, N=3, read-out: brain Concentration, Mean): 3600 ng/g | concentration at 0.5 hr (Brain distribution study; male, C57BL/6, mouse, brain, po, 20 mg/kg, 0.5 hr, read-out: brain Concentration, Individuals): 3730 ng/g | concentration at 0.75 hr (Brain distribution study; male, C57BL/6, mouse, brain, po, 20 mg/kg, 0.75 hr, N=3, read-out: brain Concentration, Mean): 3250 ng/g | concentration at 0.75 hr (Brain distribution study; male, C57BL/6, mouse, brain, po, 20 mg/kg, 0.75 hr, read-out: brain Concentration, Individuals): 3300 ng/g | concentration at 1 hr (Brain distribution study; male, C57BL/6, mouse, brain, po, 20 mg/kg, 1 hr, N=3, read-out: brain Concentration, Mean): 2910 ng/g
